Data: US8648208B2, “Activating agent for peroxisome proliferator activated receptor” (Nippon Chemiphar Co. Ltd., priority 2008, dated 2014)

Assays:
hPPARδ (LBD) = target: T1, hPPARδ (LBD) (Homo sapiens, UniProt Q03181); assay: PPAR activating effect, GAL4-hPPARδ LBD luciferase reporter transfection in CV-1 cells; assay type: cell-based; details: CV-1, 40 h; read-out: PPAR activity δ (relative value to control compound)
T1 construct: A receptor expression plasmid (pSG5-GAL4-hPPARα or γ or δ (LBD)); GAL4 (fusion partner); expressed in transfected cells; host or cells: CV-1 cells (ATCC)
T1 sequence (Q03181 211-439 limits assumed): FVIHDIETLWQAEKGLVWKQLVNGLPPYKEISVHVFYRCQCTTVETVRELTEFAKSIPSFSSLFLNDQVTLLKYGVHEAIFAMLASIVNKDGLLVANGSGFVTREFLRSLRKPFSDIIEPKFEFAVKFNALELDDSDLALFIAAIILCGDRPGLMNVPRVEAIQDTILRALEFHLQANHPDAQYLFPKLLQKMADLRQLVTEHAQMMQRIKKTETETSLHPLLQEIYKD

hPPARγ (LBD) = target: T2, hPPARγ (LBD) (Homo sapiens, UniProt P37231); assay: PPAR activating effect, GAL4-hPPARγ LBD luciferase reporter transfection in CV-1 cells; assay type: cell-based; details: Table 26, test compound 10^-7 M, 100% = Rosiglitazone 10^-5 M
T2 construct: A receptor expression plasmid (pSG5-GAL4-hPPARα or γ or δ (LBD)); GAL4 (fusion partner); expressed in transfected cells; host or cells: CV-1 cells (ATCC)
T2 sequence (P37231 238-503 limits assumed): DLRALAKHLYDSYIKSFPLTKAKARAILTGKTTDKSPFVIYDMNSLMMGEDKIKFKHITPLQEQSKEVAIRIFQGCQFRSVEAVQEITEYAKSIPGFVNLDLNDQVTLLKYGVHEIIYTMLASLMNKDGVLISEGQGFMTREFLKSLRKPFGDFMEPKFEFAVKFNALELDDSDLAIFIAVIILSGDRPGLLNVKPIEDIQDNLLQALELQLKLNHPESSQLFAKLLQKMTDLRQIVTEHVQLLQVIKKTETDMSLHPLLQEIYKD

hPPARα (LBD) = target: T3, hPPARα (LBD) (Homo sapiens, UniProt Q07869); assay: PPAR activating effect, GAL4-hPPARα LBD luciferase reporter transfection in CV-1 cells; assay type: cell-based; details: Table 26, test compound 10^-7 M, 100% = GW-590735 10^-6 M
T3 construct: A receptor expression plasmid (pSG5-GAL4-hPPARα or γ or δ (LBD)); GAL4 (fusion partner); expressed in transfected cells; host or cells: CV-1 cells (ATCC)
T3 sequence (Q07869 239-466 limits assumed): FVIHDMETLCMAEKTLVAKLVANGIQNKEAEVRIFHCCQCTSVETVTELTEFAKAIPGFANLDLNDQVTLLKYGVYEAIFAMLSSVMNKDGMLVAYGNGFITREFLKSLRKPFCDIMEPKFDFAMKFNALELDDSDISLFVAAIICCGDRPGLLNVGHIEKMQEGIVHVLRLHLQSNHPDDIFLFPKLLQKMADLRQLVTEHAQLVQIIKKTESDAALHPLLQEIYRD

Structure (SMILES)	activation at 0.1 µM (hPPARδ (LBD)) [%]	melting point [°C]	activation at 0.1 µM (hPPARγ (LBD); CV-1, 40 h, read-out: PPAR activity γ (relative value to control compound)) [%]	activation at 0.1 µM (hPPARα (LBD); CV-1, 40 h, read-out: PPAR activity α (relative value to control compound)) [%]	PPAR activity γ (relative value to control compound) (hPPARγ (LBD))	PPAR activity α (relative value to control compound) (hPPARα (LBD))
CCCc1c(CCc2noc3cc(N(C)CC(=O)O)c(C)cc23)sc2cc(C(F)(F)F)ccc12 [Example 24, N-[5-Methyl-3-[2-[3-propyl-6-(trifluoromethyl)benzothiophen-2-yl]ethyl]benzisoxazol-6-yl]-N-methylglycine]	77.2	147 to 149	5.8	16.4	–	–
CCCc1c(CCc2noc3cc(OCC(=O)O)c(C)cc23)sc2cc(C(F)(F)F)ccc12 [Example 25, [5-Methyl-3-[2-[3-propyl-6-(trifluoromethyl)benzothiophen-2-yl]ethyl]benzisoxazol-6-yloxy]acetic acid]	87.4	–	–	–	Inactive	Inactive
CCCc1c(CCc2noc3cc(CCC(=O)O)c(C)cc23)sc2cc(C(F)(F)F)ccc12 [Example 26, 3-[5-Methyl-3-[2-[3-propyl-6-(trifluoromethyl)benzothiophen-2-yl]ethyl]benzisoxazol-6-yl]propionic acid]	88.8	–	–	–	Inactive	Inactive
CC(C)c1c(CCc2noc3cc(N(C)CC(=O)O)ccc23)sc2cc(C(F)(F)F)ccc12 [Example 28, N-[3-[2-[3-Isopropyl-6-(trifluoromethyl)benzothiophen-2-yl]ethyl]benzisoxazol-6-yl]-N-methylglycine]	81.3	153 to 156	–	–	Inactive	Inactive
